Test system: KRAS patient-derived spheroids with HUVEC/MSC, viability
Assay: Anticancer human tumor 941728-121-R-J1-PDC patient-derived lung adenocarcinoma cell line growth inhibition [KRAS2]
Details: for IC50: curve of first compound; for viability, T/C: stronger effect = lower value
Excerpt: Multicellular complex tumor spheroid response to RAS pathway inhibitors in combination with a targeted agents in patient-derived cell lines with oncogenic KRAS variants from multiple cancer types
A high-throughput screen of multi-cell type tumor spheroids was designed to identify active combinations of targeted small molecules and KRAS pathway inhibitors. Complex spheroids include a stromal component modeled by human endothelial cells (HUVEC) and fibroblasts modeled by human mesenchymal stem cells (MSCs). The concentration ranges selected for each drug and investigational agent were based upon clinically achievable concentrations if the clinical Cmax of the agent was known.
Compounds. The drugs and investigational agents: BI-3406 (NSC825286), BAY-293 (NSC824723), batoprotafib (TNO155; NSC825523), sotorasib (AMG 510; NSC818433), MRTX1257 (NSC819558), elimusertib (BAY 1895344; NSC800525), molibresib (GSK525762; NSC774829), temuterkib (LY3214996; NSC803410), venetoclax (NSC766270), alisertib (NSC759677), olaparib (NSC753686), talazoparib (NSC767125), erdafitinib (NSC781556), ipatasertib (NSC767898), cabozantinib (NSC761068), nintedanib (NSC756659), abemaciclib (NSC768073), docetaxel (NSC628503), trametinib (NSC758246), and sapanisertib (NSC764658) were obtained from the National Cancer Institute (NCI) Developmental Therapeutics Program Chemical Repository. The FDA-approved anticancer drug set is available from the Developmental Therapeutics Program. […] The stock solutions were prepared in dimethyl sulfoxide (DMSO, Sigma-Aldrich, St. Louis, MO, cat. D2650) at 800-fold the tested concentration and stored at -70 degrees C prior to their use. All drugs and investigational agents were tested over a range starting from a high concentration at or near the clinical Cmax and decreasing in half-log increments. If the clinical Cmax for an agent had not been determined, the highest concentration tested was 10 microM.
Cell Culture. All cells were maintained in an incubator at 37 degrees C and 5% CO2 with 95% humidity. The PDC lines were cultured according to standard operating procedures established by the NCI PDMR (https://pdmr.cancer.gov/sops/default.htm). Briefly, all PDCs were thawed and cultured in Matrigel-coated flasks prepared with a working solution of 1X Ham's F-12 nutrient mix, without supplementation (Invitrogen, Waltham, MA, cat. 11765054), 100 U/mL penicillin-streptomycin (Invitrogen, cat. 15140122), and 2.5% Matrigel (Corning Inc., Corning, NY, cat. 354248) for the first three passages. All PDCs were cultured in complete DMEM/F-12 media containing advanced DMEM/F-12 (Invitrogen, cat. 12634028), 4.9% defined fetal bovine serum, heat inactivated (HyClone Laboratories Inc., Logan, UT, cat. SH30070.03HI), 389 ng/mL hydrocortisone (Sigma-Aldrich, cat. H4001), 9.7 ng/mL human EGF recombinant protein (Invitrogen, cat. PHG0313), 23.4 microg/mL adenine (Sigma-Aldrich, cat. A2786), 97.3 U/mL penicillin-streptomycin (Invitrogen, cat. 15140122), 1.9 mM L-glutamine (Invitrogen, cat. 25030081), and 9.7 microM Y-27632 dihydrochloride (Tocris Bioscience, Bristol, United Kingdom, cat. 1254). The PDCs were cultured in complete DMEM/F12 media without 9.7 microM Y-27632 dihydrochloride for at least two passages prior to the screen. The established cell line HOP-62 was cultured in RPMI 1640 medium, HEPES (Invitrogen, cat. 22400105) with 10% defined fetal bovine serum (HyClone Laboratories Inc., cat. SH30070.03) and 2 mM L-glutamine (Invitrogen, cat. 25030081). The pooled donor HUVEC were cultured in endothelial cell growth medium 2 (PromoCell, Heidelberg, Germany, cat. C-22011) and the hMSC were cultured in mesenchymal stem cell growth medium 2 (PromoCell, cat. C-28009). For all experiments, HUVEC and hMSC were used at passages </=5, while the malignant cell lines were used at passages </=15. […]

[1] = second compound 0.1 µM, first compound 0.000316 µM
[2] = second compound 0.1 µM, first compound 0.001 µM
[3] = second compound 0.1 µM, first compound 0.00316 µM
[4] = second compound 0.1 µM, first compound 0.01 µM
[5] = second compound 0.1 µM, first compound 0.0316 µM
[6] = second compound 0.316 µM, first compound 0.000316 µM
[7] = second compound 0.316 µM, first compound 0.001 µM
[8] = second compound 0.316 µM, first compound 0.00316 µM
[9] = second compound 0.316 µM, first compound 0.01 µM
[10] = second compound 0.316 µM, first compound 0.0316 µM
[11] = second compound 1 µM, first compound 0.000316 µM
[12] = second compound 1 µM, first compound 0.001 µM
[13] = second compound 1 µM, first compound 0.00316 µM
[14] = second compound 1 µM, first compound 0.01 µM
[15] = second compound 1 µM, first compound 0.0316 µM
[16] = second compound 3.16 µM, first compound 0.000316 µM
[17] = second compound 3.16 µM, first compound 0.001 µM
[18] = second compound 3.16 µM, first compound 0.00316 µM
[19] = second compound 3.16 µM, first compound 0.01 µM
[20] = second compound 3.16 µM, first compound 0.0316 µM
[21] = second compound 10 µM, first compound 0.000316 µM
[22] = second compound 10 µM, first compound 0.001 µM
[23] = second compound 10 µM, first compound 0.00316 µM
[24] = second compound 10 µM, first compound 0.01 µM
[25] = second compound 10 µM, first compound 0.0316 µM
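Note: spheroids exposed to agents for seven days before readout.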

| SMILES | IC50 (second compound 0.1 µM) [nM] | IC50 (second compound 0.316 µM) [nM] | IC50 (second compound 1 µM) [nM] | IC50 (second compound 3.16 µM) [nM] | IC50 (second compound 10 µM) [nM] | viability, T/C [1] [%] | viability, T/C [2] [%] | viability, T/C [3] [%] | viability, T/C [4] [%] | viability, T/C [5] [%] | viability, T/C [6] [%] | viability, T/C [7] [%] | viability, T/C [8] [%] | viability, T/C [9] [%] | viability, T/C [10] [%] | viability, T/C [11] [%] | viability, T/C [12] [%] | viability, T/C [13] [%] | viability, T/C [14] [%] | viability, T/C [15] [%] | further results |
| --- | --- | --- | --- | --- | --- | --- | --- | --- | --- | --- | --- | --- | --- | --- | --- | --- | --- | --- | --- | --- | --- |
| CC(=O)Nc1cccc(-n2c(=O)n(C3CC3)c(=O)c3c(Nc4ccc(I)cc4F)n(C)c(=O)c(C)c32)c1 + C=CC(=O)N1CCN(c2nc(=O)n(-c3c(C)ccnc3C(C)C)c3nc(-c4c(O)cccc4F)c(F)cc23)C(C)C1 | < 0.1 | < 0.1 | < 0.1 | < 0.1 | < 0.1 | 26.2 | 20.3 | 21.6 | 19.6 | 19.3 | 25.4 | 24.1 | 22.9 | 20.2 | 19.3 | 28.3 | 24.2 | 23.6 | 22.3 | 20.4 | viability, T/C (second compound 0.1 µM, first compound 0.0001 µM): 27.9%; viability, T/C (second compound 0.316 µM, first compound 0.0001 µM): 26%; viability, T/C (second compound 1 µM, first compound 0.0001 µM): 27.5%; viability, T/C (second compound 3.16 µM, first compound 0.0001 µM): 27.3%; viability, T/C [16]: 30.1%; viability, T/C [17]: 26.9%; viability, T/C [18]: 25.9%; viability, T/C [19]: 28.6%; viability, T/C [20]: 23.4%; viability, T/C (second compound 10 µM, first compound 0.0001 µM): 35.8%; viability, T/C [21]: 31.4%; viability, T/C [22]: 36.3%; viability, T/C [23]: 36.2%; viability, T/C [24]: 29.6%; viability, T/C [25]: 29% |
| CC(C)n1nc(-c2ccc3oc(N)nc3c2)c2c(N)ncnc21 + C=CC(=O)N1CCN(c2nc(=O)n(-c3c(C)ccnc3C(C)C)c3nc(-c4c(O)cccc4F)c(F)cc23)C(C)C1 | < 0.316 | < 0.316 | < 0.316 | < 0.316 | < 0.316 | 13.2 | 17 | 8.16 | 5.92 | 4.43 | 13.8 | 11.7 | 10.2 | 6.98 | 4.02 | 15 | 11 | 9.95 | 7.7 | 4.43 | viability, T/C (second compound 0.1 µM, first compound 0.1 µM): 3.9%; viability, T/C (second compound 0.316 µM, first compound 0.1 µM): 3.22%; viability, T/C (second compound 1 µM, first compound 0.1 µM): 5.61%; viability, T/C [16]: 14.2%; viability, T/C [17]: 16.4%; viability, T/C [18]: 13.3%; viability, T/C [19]: 9.65%; viability, T/C [20]: 6%; viability, T/C (second compound 3.16 µM, first compound 0.1 µM): 6.12%; viability, T/C [21]: 17.3%; viability, T/C [22]: 16.8%; viability, T/C [23]: 16.5%; viability, T/C [24]: 15.2%; viability, T/C [25]: 11.3%; viability, T/C (second compound 10 µM, first compound 0.1 µM): 11.2% |

Reference: PubChem BioAssay AID1963862 (Molecular Pharmacology Branch, DTP, NCI, 2024)
